# Experimental data from ChEMBL document CHEMBL1201861, “Genomics of Drug Sensitity in Cancer screening data, Wellcome Trust Sanger Institute”.
# Key:
# Experiment in all cases: cells
# COLO-741 = format: functional, cell-based; settings: Homo sapiens
# Description: SANGER: Inhibition of human COLO-741 cell growth in a cell viability assay.
# CP50-MEL-B = format: functional, cell-based; settings: Homo sapiens;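 further: growth inhibition of the human cell line, measured with a cell viability read-out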
# Description: SANGER: Inhibition of human CP50-MEL-B cell growth in a cell viability assay.
# Ca-Ski = format: functional, cell-based; settings: Homo sapiens;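 further: cell viability assay measuring inhibition of Ca-Ski cell growth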
# Description: SANGER: Inhibition of human Ca-Ski cell growth in a cell viability assay.
# DU-145 = format: functional, cell-based; settings: Homo sapiens
# Description: SANGER: Inhibition of human DU-145 cell growth in a cell viability assay.
# FTC-133 = format: functional, cell-based; settings: Homo sapiens
# GAMG = format: functional, cell-based; settings: Homo sapiens;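 further: cell growth inhibition measured by a viability assay in the GAMG human cell line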
# Description: SANGER: Inhibition of human GAMG cell growth in a cell viability assay.
# HC-1 = format: functional, cell-based, Homo sapiens; settings: Homo sapiens, HC-1;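 further: growth inhibition of HC-1 cells measured by a cell viability assay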
# Description: SANGER: Inhibition of human HC-1 cell growth in a cell viability assay.
# HCC1569 = format: functional, cell-based; settings: Homo sapiens;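 further: growth inhibition of human HCC1569 cells, read out with a cell viability assay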
# Description: SANGER: Inhibition of human HCC1569 cell growth in a cell viability assay.
# HCC1954 = format: functional, cell-based; settings: Homo sapiens;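 further: growth inhibition of human HCC1954 cells, read out with a cell viability assay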
# Description: SANGER: Inhibition of human HCC1954 cell growth in a cell viability assay.
# HCC38 = format: functional, cell-based; settings: Homo sapiens;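 further: cell viability assay on the human HCC38 cell line, with IC50 marking the concentration that inhibits cell growth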
# Description: SANGER: Inhibition of human HCC38 cell growth in a cell viability assay.
# HLE = format: functional, cell-based; settings: Homo sapiens;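 further: growth inhibition of human HLE cells, read out by a cell viability assay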
# Description: SANGER: Inhibition of human HLE cell growth in a cell viability assay.
# HN = format: functional, cell-based; settings: Homo sapiens
# Description: SANGER: Inhibition of human HN cell growth in a cell viability assay.
# HOS = format: functional, cell-based; settings: Homo sapiens;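 further: growth inhibition of human HOS cells, read out with a cell viability assay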
# Description: SANGER: Inhibition of human HOS cell growth in a cell viability assay.
# HuCCT-1 = format: functional, cell-based, HuCCT1; settings: Homo sapiens;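 further: growth inhibition of HuCCT-1 cells, read out by a cell viability assay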
# Description: SANGER: Inhibition of human HuCCT1 cell growth in a cell viability assay.
# IGROV-1 = format: functional, cell-based; settings: Homo sapiens;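 further: reduction of IGROV-1 cell growth, read out with a viability assay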
# Description: SANGER: Inhibition of human IGROV-1 cell growth in a cell viability assay.
# JEG-3 = format: functional, cell-based; settings: Homo sapiens;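 further: growth inhibition of human JEG-3 cells, read out with a cell viability assay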
# Description: SANGER: Inhibition of human JEG-3 cell growth in a cell viability assay.
# KMOE-2 = format: functional, cell-based, Homo sapiens; settings: Homo sapiens, KMOE-2;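 further: growth inhibition of human KMOE-2 cells, read out with a cell viability assay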
# Description: SANGER: Inhibition of human KMOE-2 cell growth in a cell viability assay.
# KYSE-150 cell line = format: functional, cell-based; settings: Homo sapiens;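 further: growth inhibition of human KYSE-150 cells, read out with a cell viability assay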
# Description: SANGER: Inhibition of human KYSE-150 cell growth in a cell viability assay.
# MCF7 = format: functional, cell-based; settings: Homo sapiens;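 further: growth inhibition of human MCF7 cells, read out with a cell viability assay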
# Description: SANGER: Inhibition of human MCF7 cell growth in a cell viability assay.
# MG-63 = format: functional, cell-based; settings: Homo sapiens;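 further: growth inhibition of human MG-63 cells, read out with a cell viability assay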
# Description: SANGER: Inhibition of human MG-63 cell growth in a cell viability assay.
# NB7 = format: functional, cell-based, Homo sapiens; settings: Homo sapiens, NB7;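 further: growth inhibition of NB7 cells, read out with a cell viability assay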
# Description: SANGER: Inhibition of human NB7 cell growth in a cell viability assay.
# NCI-H1623 = format: functional, cell-based; settings: Homo sapiens;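 further: cell viability assay used as the read-out for growth inhibition of NCI-H1623 cells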
# Description: SANGER: Inhibition of human NCI-H1623 cell growth in a cell viability assay.
# NCI-H1793 = format: functional, cell-based; settings: Homo sapiens;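 further: cell growth inhibition, read out by a cell viability assay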
# Description: SANGER: Inhibition of human NCI-H1793 cell growth in a cell viability assay.
# NCI-H2030 = format: functional, cell-based; settings: Homo sapiens;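 further: growth inhibition of human NCI-H2030 cells, read out by a cell viability assay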
# Description: SANGER: Inhibition of human NCI-H2030 cell growth in a cell viability assay.
# NCI-H2228 = format: functional, cell-based; settings: Homo sapiens;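 further: growth inhibition of human NCI-H2228 cells, read out by a cell viability assay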
# Description: SANGER: Inhibition of human NCI-H2228 cell growth in a cell viability assay.
# NCI-H510A = format: functional, cell-based, Homo sapiens; settings: Homo sapiens, NCI-H510A;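 further: growth inhibition of NCI-H510A cells, read out with a cell viability assay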
# Description: SANGER: Inhibition of human NCI-H510A cell growth in a cell viability assay.
# NY = format: functional, cell-based; settings: Homo sapiens
# Description: SANGER: Inhibition of human NY cell growth in a cell viability assay.
# OE19 = format: functional, cell-based; settings: Homo sapiens;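 further: growth inhibition of OE19 cells, measured through a cell viability read-out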
# Description: SANGER: Inhibition of human OE19 cell growth in a cell viability assay.
# OVCAR-3 = format: functional, cell-based; settings: Homo sapiens;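 further: growth inhibition of human OVCAR-3 cells, determined by a cell viability assay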
# Description: SANGER: Inhibition of human OVCAR-3 cell growth in a cell viability assay.
# PANC-03-27 = format: functional, cell-based; settings: Homo sapiens
# Description: SANGER: Inhibition of human PANC-03-27 cell growth in a cell viability assay.
# PANC-08-13 = format: functional, cell-based; settings: Homo sapiens;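 further: cell growth inhibition, measured with a cell viability assay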
# Description: SANGER: Inhibition of human PANC-08-13 cell growth in a cell viability assay.
# RPMI-2650 = format: functional, cell-based; settings: Homo sapiens
# Description: SANGER: Inhibition of human RPMI-2650 cell growth in a cell viability assay.
# SBC-5 = format: functional, cell-based; settings: Homo sapiens;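 further: cell viability assay read-out, IC50 is the concentration that inhibits growth of the cells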
# Description: SANGER: Inhibition of human SBC-5 cell growth in a cell viability assay.
# SK-MEL-24 = format: functional, cell-based; settings: Homo sapiens;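 further: growth inhibition read out by a cell viability assay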
# Description: SANGER: Inhibition of human SK-MEL-24 cell growth in a cell viability assay.
# SW1710 = format: functional, cell-based; settings: Homo sapiens;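 further: growth inhibition of SW1710 cells, determined with a cell viability assay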
# Description: SANGER: Inhibition of human SW1710 cell growth in a cell viability assay.
# SW48 = format: functional, cell-based; settings: Homo sapiens;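 further: growth inhibition of SW48 cells, read out with a cell viability assay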
# Description: SANGER: Inhibition of human SW48 cell growth in a cell viability assay.
# SAOS-2 = format: functional, cell-based; settings: Homo sapiens;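 further: growth inhibition of human Saos-2 cells determined by a cell viability assay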
# Description: SANGER: Inhibition of human Saos-2 cell growth in a cell viability assay.
# T47D = format: functional, cell-based; settings: Homo sapiens;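 further: growth inhibition of human T47D cells, measured with a cell viability assay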
# Description: SANGER: Inhibition of human T47D cell growth in a cell viability assay.
# 647-V = format: functional, cell-based; settings: Homo sapiens;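 further: growth inhibition of 647-V cells, read out with a cell viability assay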
# Description: SANGER: Inhibition of human 647-V cell growth in a cell viability assay.
# 786-0 = format: functional, cell-based; settings: Homo sapiens
# Description: SANGER: Inhibition of human 786-0 cell growth in a cell viability assay.
# 8305C = format: functional, cell-based; settings: Homo sapiens
# Description: SANGER: Inhibition of human 8305C cell growth in a cell viability assay.
# BCPAP = format: functional, cell-based; settings: Homo sapiens;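 further: growth inhibition of BCPAP cells, read out in a cell viability assay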
# Description: SANGER: Inhibition of human BCPAP cell growth in a cell viability assay.
# BFTC-905 = format: functional, cell-based; settings: Homo sapiens
# Description: SANGER: Inhibition of human BFTC-905 cell growth in a cell viability assay.
# BFTC-909 = format: functional, cell-based; settings: Homo sapiens
# Description: SANGER: Inhibition of human BFTC-909 cell growth in a cell viability assay.
# CAL-12T = format: functional, cell-based; settings: Homo sapiens;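 further: growth inhibition of human CAL-12T cells, read out with a cell viability assay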
# Description: SANGER: Inhibition of human CAL-12T cell growth in a cell viability assay.
# CAL-51 = format: functional, cell-based; settings: Homo sapiens;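 further: human CAL-51 cell line, growth inhibition read out via a cell viability assay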
# Description: SANGER: Inhibition of human CAL-51 cell growth in a cell viability assay.
# U-118-MG = format: functional, cell-based; settings: Homo sapiens
# Description: SANGER: Inhibition of human U-118-MG cell growth in a cell viability assay.
# UO-31 = format: functional, cell-based; settings: Homo sapiens;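 further: cell viability assay measuring inhibition of cell growth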
# Description: SANGER: Inhibition of human U031 cell growth in a cell viability assay.
# CHL-1 = format: functional, cell-based; settings: Homo sapiens;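 further: cell growth inhibition, read out with a cell viability assay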
# Description: SANGER: Inhibition of human CHL-1 cell growth in a cell viability assay.
# CHP-212 = format: functional, cell-based; settings: Homo sapiens
# Description: SANGER: Inhibition of human CHP-212 cell growth in a cell viability assay.
# COLO-678 = format: functional, cell-based; settings: Homo sapiens
# Description: SANGER: Inhibition of human COLO-678 cell growth in a cell viability assay.
compound,measurement,setting,value
NC(=O)Nc1cc(-c2cccc(F)c2)sc1C(=O)N[C@H]1CCCNC1 [AZD-7762],IC50,COLO-741,> 2000 nM
same,IC50,CP50-MEL-B,> 2000 nM
same,IC50,Ca-Ski,388 nM
same,IC50,DU-145,> 2000 nM
same,IC50,FTC-133,303 nM
same,IC50,GAMG,386 nM
same,IC50,HC-1,521 nM
same,IC50,HCC1569,> 2000 nM
same,IC50,HCC1954,> 2000 nM
same,IC50,HCC38,750 nM
same,IC50,HLE,> 2000 nM
same,IC50,HN,846 nM
same,IC50,HOS,880 nM
same,IC50,HuCCT-1,708 nM
same,IC50,IGROV-1,244 nM
same,IC50,JEG-3,> 2000 nM
same,IC50,KMOE-2,1110 nM
same,IC50,KYSE-150 cell line,> 2000 nM
same,IC50,MCF7,> 2000 nM
same,IC50,MG-63,> 2000 nM
same,IC50,NB7,> 2000 nM
same,IC50,NCI-H1623,> 2000 nM
same,IC50,NCI-H1793,1610 nM
same,IC50,NCI-H2030,1020 nM
same,IC50,NCI-H2228,1290 nM
same,IC50,NCI-H510A,246 nM
same,IC50,NY,> 2000 nM
same,IC50,OE19,> 2000 nM
same,IC50,OVCAR-3,274 nM
same,IC50,PANC-03-27,143 nM
same,IC50,PANC-08-13,661 nM
same,IC50,RPMI-2650,> 2000 nM
same,IC50,SBC-5,513 nM
same,IC50,SK-MEL-24,> 2000 nM
same,IC50,SW1710,640 nM
same,IC50,SW48,792 nM
same,IC50,SAOS-2,746 nM
same,IC50,T47D,> 2000 nM
same,IC50,647-V,618 nM
same,IC50,786-0,388 nM
same,IC50,8305C,789 nM
same,IC50,BCPAP,1890 nM
same,IC50,BFTC-905,985 nM
same,IC50,BFTC-909,588 nM
same,IC50,CAL-12T,433 nM
same,IC50,CAL-51,514 nM
same,IC50,U-118-MG,> 2000 nM
same,IC50,UO-31,482 nM
same,IC50,CHL-1,526 nM
same,IC50,CHP-212,198 nM
same,IC50,COLO-678,> 2000 nM
CN(NC(=O)CC(=O)NN(C)C(=S)c1ccccc1)C(=S)c1ccccc1 [ELESCLOMOL],IC50,COLO-741,176 nM
same,IC50,CP50-MEL-B,8.63 nM
same,IC50,Ca-Ski,> 200 nM
same,IC50,DU-145,> 200 nM
same,IC50,FTC-133,27 nM
same,IC50,GAMG,2.51 nM
same,IC50,HC-1,> 200 nM
same,IC50,HCC1569,> 200 nM
same,IC50,HCC1954,> 200 nM
same,IC50,HCC38,> 200 nM
same,IC50,HLE,9.93 nM
same,IC50,HN,15.4 nM
same,IC50,HOS,2.53 nM
same,IC50,HuCCT-1,5.52 nM
same,IC50,IGROV-1,104 nM
same,IC50,JEG-3,8.84 nM
same,IC50,KMOE-2,145 nM
same,IC50,KYSE-150 cell line,95 nM
same,IC50,MCF7,31.4 nM
same,IC50,MG-63,> 200 nM
same,IC50,NB7,14.4 nM
same,IC50,NCI-H1623,179 nM
same,IC50,NCI-H1793,> 200 nM
same,IC50,NCI-H2030,26.4 nM
same,IC50,NCI-H2228,30.9 nM
same,IC50,NCI-H510A,12.4 nM
same,IC50,NY,37.6 nM
same,IC50,OE19,> 200 nM
same,IC50,OVCAR-3,6.2 nM
same,IC50,PANC-03-27,39.9 nM
same,IC50,PANC-08-13,9.63 nM
same,IC50,RPMI-2650,34.1 nM
same,IC50,SBC-5,21.6 nM
same,IC50,SK-MEL-24,> 200 nM
same,IC50,SW1710,5.16 nM
same,IC50,SW48,108 nM
same,IC50,SAOS-2,11.1 nM
same,IC50,T47D,16.8 nM
same,IC50,647-V,6.9 nM
same,IC50,786-0,12.9 nM
same,IC50,8305C,192 nM
same,IC50,BCPAP,1.34 nM
same,IC50,BFTC-905,20.5 nM
same,IC50,BFTC-909,63.5 nM
same,IC50,CAL-12T,63 nM
same,IC50,CAL-51,< 0.781 nM
same,IC50,U-118-MG,> 200 nM
same,IC50,UO-31,13.4 nM
same,IC50,CHL-1,2.81 nM
same,IC50,CHP-212,7.34 nM
same,IC50,COLO-678,42.5 nM
